Data reported in article PMC10604324, “Implications for Combination Therapy of Selective Monoamine Reuptake Inhibitors on Dopamine Transporters” (Biomedicines, 2023).
“And” between values parts separate entries of the source, which are not always exact repeats. Equal entries are not always repeated. Where two headings read alike, the source gives them in different places.

Columns and labels:
human DAT = human DAT (Homo sapiens, UniProt Q01959); test: Fluorescence-based neurotransmitter uptake assay, HEK-hDAT cells; format: cell-based
Sequence of human DAT (Q01959 whole entry): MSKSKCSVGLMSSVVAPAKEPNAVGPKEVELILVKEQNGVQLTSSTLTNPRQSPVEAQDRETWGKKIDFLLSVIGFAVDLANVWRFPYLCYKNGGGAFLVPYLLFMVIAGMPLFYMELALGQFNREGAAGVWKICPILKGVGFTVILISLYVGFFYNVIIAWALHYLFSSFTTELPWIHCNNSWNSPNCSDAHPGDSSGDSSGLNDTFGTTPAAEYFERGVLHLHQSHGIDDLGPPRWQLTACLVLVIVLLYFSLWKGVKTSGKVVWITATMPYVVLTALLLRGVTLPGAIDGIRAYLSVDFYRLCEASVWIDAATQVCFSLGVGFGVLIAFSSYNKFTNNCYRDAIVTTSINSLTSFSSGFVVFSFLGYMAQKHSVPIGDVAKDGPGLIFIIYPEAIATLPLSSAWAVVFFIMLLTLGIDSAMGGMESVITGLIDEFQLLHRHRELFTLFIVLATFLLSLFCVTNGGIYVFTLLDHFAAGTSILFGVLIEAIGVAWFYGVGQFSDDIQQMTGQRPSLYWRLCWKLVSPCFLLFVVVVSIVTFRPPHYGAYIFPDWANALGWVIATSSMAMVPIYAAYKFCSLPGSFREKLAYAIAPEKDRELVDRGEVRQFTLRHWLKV

DAT [1] = test system: DAT; parameters: method as in PMID 10997723; details: effect of isethionate on mazindol binding; cited from earlier work
SERT = details: cited from earlier work
NET = details: cited from earlier work
DAT [2] = details: cited from earlier work
[3] = DAT inhibition by monovalent ions
[4] = read-out: Literature IC50, substrate uptake assay, ref A.J. Eshleman, et al., J Pharmacol Exp Ther 289 (1999) 877-885
[5] = read-out: Literature IC50, substrate uptake assay, ref M.J. Hansard, et al., J Pharmacol Exp Ther 303 (2002) 952-958

Structure (SMILES): C[N+](C)(C)CCO [Choline]
- Hill coefficient (h) (human DAT): 1.4 ± 0.2
- IC50 (human DAT; [3]): 37000 µM and 36600 µM

Structure (SMILES): O=C(O)[C@H](O)[C@@H](O)[C@H](O)[C@H](O)CO [Gluconate]
- Hill coefficient (h) (human DAT; [3]): 1.2 ± 0.3
- IC50 (human DAT; [3]): 1400 ± 200 µM

Structure (SMILES): O=S(=O)(O)CCO [Isethionate]
- Hill coefficient (h) (human DAT; [3]): 0.8 ± 0.2
- IC50 (human DAT; [3]): 3300 ± 600 µM
- reduction of the binding of a DAT inhibitor, mazindol (DAT [1]): more than 50%

Structure (SMILES): CNC[C@H](O)[C@H](O)[C@H](O)[C@H](O)CO [NMDG]
- Hill coefficient (h) (human DAT; [3]): 11 and 10.6 ± 3.8
- IC50 (human DAT; [3]): 3700 ± 200 µM

Structure (SMILES): CNCCC(Oc1ccccc1OC)c1ccccc1 (stereo not drawn) [Nisoxetine]
- IC50 (NET; [4]): 0.0053 µM
